# According to patent US7842707B2, “Peptidase inhibitors” (Nuada, LLC, priority 2004, dated 2010):
# Target: T1, Porcine dipeptidyl peptidase IV (Sus scrofa, UniProt P22411)
# T1 construct: purchased Sigma D-7052
# Assay: Inhibition of dipeptidyl peptidase IV (DPP-IV) activity, Ala-Pro-AFC fluorimetric assay
# Type: biochemical
# Conditions: for IC50: 8 point concentration curves in duplicate, Ala-Pro-AFC 20 μM, Tris-HCl pH 8.0, 37° C.; for inhibition at 0.1 µM: test compound at 100 nM, read-out: Percent Inhibition of DPP-IV at 100 nM; for inhibition at 0.1 µM / inhibition at 1 µM: in duplicate; for inhibition at 1 µM: test compound at 1 uM, read-out: Percent Inhibition of DPP-IV at 1 uM
# Procedure: Porcine dipeptidyl peptidase IV (Sigma, D-7052) is used. Test compound and/or vehicle is pre-incubated with enzyme (70 μU ? /ml) in Tris-HCl pH 8.0 for 15 minutes at 37° C. Ala-Pro-AFC (20 μM) is then added for a further 30 minutes incubation period. The concentration of proteolytic product, AFC, is then read spectrofluorimetrically. 8 point concentration curves in duplicate are used to calculate IC50 values, or percent inhibition is measured in duplicate at two dose levels.
# T1 sequence (P22411 whole entry): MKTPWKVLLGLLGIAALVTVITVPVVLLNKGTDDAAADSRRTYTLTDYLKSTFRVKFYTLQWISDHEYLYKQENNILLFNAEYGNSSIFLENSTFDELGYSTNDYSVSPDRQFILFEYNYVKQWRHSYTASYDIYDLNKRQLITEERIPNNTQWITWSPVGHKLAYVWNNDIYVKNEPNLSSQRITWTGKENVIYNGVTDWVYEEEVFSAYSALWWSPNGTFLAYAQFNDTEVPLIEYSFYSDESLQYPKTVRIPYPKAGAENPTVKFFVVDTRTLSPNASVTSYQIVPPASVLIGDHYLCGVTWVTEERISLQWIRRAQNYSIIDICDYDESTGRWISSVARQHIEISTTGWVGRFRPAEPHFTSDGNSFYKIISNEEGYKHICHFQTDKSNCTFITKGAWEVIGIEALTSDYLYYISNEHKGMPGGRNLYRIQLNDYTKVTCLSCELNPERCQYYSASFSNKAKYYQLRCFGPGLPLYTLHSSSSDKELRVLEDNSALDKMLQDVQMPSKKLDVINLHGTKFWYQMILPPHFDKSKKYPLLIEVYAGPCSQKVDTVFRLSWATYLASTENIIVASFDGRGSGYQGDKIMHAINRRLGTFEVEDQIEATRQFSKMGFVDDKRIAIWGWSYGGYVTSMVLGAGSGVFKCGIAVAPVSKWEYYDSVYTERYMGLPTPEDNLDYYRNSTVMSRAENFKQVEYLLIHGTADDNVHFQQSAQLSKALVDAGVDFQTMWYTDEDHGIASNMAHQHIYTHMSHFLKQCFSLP
smiles,measurement,value
"CS(=O)(=O)NC12CC3CC(CC(NCC(=O)N4CCC[C@H]4C#N)(C3)C1)C2 [Example 1, (S)-1-[(3-methanesulfonamido-1-adamantyl)amino]acetyl-2-cyano-pyrrolidine]",IC50,59 nM
"CN(C)S(=O)(=O)NC12CC3CC(CC(NCC(=O)N4CCC[C@H]4C#N)(C3)C1)C2 [Example 6, N′-(3-(2-((S)-2-cyanopyrrolidin-1-yl)-2-oxoethylamino)-adamantyl)-N,N-dimethyl-sulfamide]",IC50,61 nM
"N#C[C@@H]1CCCN1C(=O)CNC12CC3CC(C1)CC(NS(=O)(=O)CC(F)(F)F)(C3)C2 [Example 3, (S)-1-[(3-(2,2,2-trifluoro)-ethanesulfonamido-1-adamantyl)amino]acetyl-2-cyano-pyrrolidine]",inhibition at 0.1 µM,68%
same,inhibition at 1 µM,94%
"N#Cc1ccc(NC23CC4CC(CC(NCC(=O)N5CCC[C@H]5C#N)(C4)C2)C3)nc1 [Example 5, 6-(3-(2-((S)-2-cyanopyrrolidin-1-yl)-2-oxoethylamino)-adamantylamino)nicotinonitrile]",inhibition at 0.1 µM,96%
same,inhibition at 1 µM,99%
"N#C[C@@H]1CCCN1C(=O)CNC12CC3CC(C1)CC(NC(=O)NS(=O)(=O)c1ccc(F)cc1)(C3)C2 [Example 7, 1-(3-(2-((S)-2-cyanopyrrolidin-1-yl)-2-oxoethylamino)-adamantyl)-3-(4-fluorophenylsulfonyl)urea]",IC50,70 nM
"CCS(=O)(=O)NC12CC3CC(CC(NCC(=O)N4CCC[C@H]4C#N)(C3)C1)C2 [Example 2, (S)-1-[(3-ethanesulfonamido-1-adamantyl)amino]acetyl-2-cyano-pyrrolidine]",inhibition at 0.1 µM,60%
same,inhibition at 1 µM,92%
"N#C[C@@H]1CCCN1C(=O)CNC12CC3CC(C1)CC(NS(=O)(=O)c1ccc(F)cc1)(C3)C2 [Example 4, (S)-1-[(3-(4-fluorophenyl)sulfonamido-1-adamantyl)amino]acetyl-2-cyano-pyrrolidine]",IC50,46 nM
